The term Kd denotes the equilibrium constant for the complex coming apart. A high value points to a looser complex.

Our source for the Kd values is ChEMBL document CHEMBL1145998, “Thermal denaturation: a method to rank slow binding, high-affinity P38alpha MAP kinase inhibitors” (J Med Chem, 2003).

Assay [1] deals with T1, Mitogen-activated protein kinase 14 (Homo sapiens, UniProt Q16539). Nature of the assay: Dissociation constant fit from ITC data against human Mitogen-activated protein kinase p38 alpha (constant fit).
T1 sequence (Q16539 whole entry): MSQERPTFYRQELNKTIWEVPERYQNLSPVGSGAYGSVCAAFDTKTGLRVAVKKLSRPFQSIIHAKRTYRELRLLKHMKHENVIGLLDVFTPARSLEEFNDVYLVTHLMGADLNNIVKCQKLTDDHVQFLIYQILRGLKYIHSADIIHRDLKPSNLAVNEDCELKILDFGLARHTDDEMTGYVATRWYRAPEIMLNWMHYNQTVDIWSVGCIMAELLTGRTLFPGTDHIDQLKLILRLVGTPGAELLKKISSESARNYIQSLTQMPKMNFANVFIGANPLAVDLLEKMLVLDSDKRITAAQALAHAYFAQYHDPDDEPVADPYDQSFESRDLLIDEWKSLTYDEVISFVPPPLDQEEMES
The target of assay [2] is T1, Mitogen-activated protein kinase 14. Nature of the assay: Dissociation constant at Tm against human Mitogen-activated protein kinase p38 alpha.
For assay [3] the target is unchanged. Nature of the assay: Dissociation constant at Tref against human Mitogen-activated protein kinase p38 alpha.
Assay [4] has the same target. Nature of the assay: Dissociation constant at Tm against human Mitogen-activated protein kinase p38 alpha (fluorescence exchange curve).

As for `Cn1nc(C(C)(C)C)cc1NC(=O)Nc1ccc(OCCN2CCOCC2)c2ccccc12`, the Kd amounted to 10 nM in assay [1], 210 nM in assay [2] and 25.7 nM in assay [3].
`Cc1ccc(-n2nc(C(C)(C)C)cc2NC(=O)Nc2ccccc2)cc1`: the equilibrium dissociation constant (Kd) in assay [1] was 5 nM; in assay [2] it was 177 nM; in assay [3], 16.8 nM; in assay [4], 21 nM.
As for `O=C(Nc1ccc(OCCN2CCOCC2)c2ccccc12)Nc1ccnn1-c1ccccc1`, the Kd in assay [1] worked out at 1180 nM; in assay [2] it was 6070 nM; in assay [3], 2400 nM.
With `CC(C)(CO)c1cc(NC(=O)Nc2ccc(OCCN3CCOCC3)c3ccccc23)n(-c2ccccc2)n1`, the dissociation constant Kd came to 20 nM in assay [1], 493 nM in assay [2], 56.4 nM in assay [3] and 36 nM in assay [4].
`CC(C)c1cc(NC(=O)Nc2ccc(OCCN3CCOCC3)c3ccccc23)n(-c2ccccc2)n1`: the Kd in assay [2] was 62.8 nM; in assay [3], 3.4 nM; in assay [4] it was 6 nM.
`CC(C)(C)c1cc(NC(=O)Nc2ccc(OCCN3CCOCC3)c3ccccc23)n(-c2ccccc2)n1`: the figures for the Kd in assay [2], in assay [3] and in assay [4] were 5.3 nM, 0.231 nM and 0.09 nM, respectively.
In the same order, the values of `Cc1ccc(-n2nc(C(C)(C)C)cc2NC(=O)Nc2cccc3ccccc23)cc1` are 118 nM, 10.6 nM and 1 nM.
